The experiment addresses Acetylcholinesterase (Homo sapiens, UniProt P22303). As to the kind of experiment: Inhibition of AChE by microplate assay.

Chain of Acetylcholinesterase (P22303 whole entry): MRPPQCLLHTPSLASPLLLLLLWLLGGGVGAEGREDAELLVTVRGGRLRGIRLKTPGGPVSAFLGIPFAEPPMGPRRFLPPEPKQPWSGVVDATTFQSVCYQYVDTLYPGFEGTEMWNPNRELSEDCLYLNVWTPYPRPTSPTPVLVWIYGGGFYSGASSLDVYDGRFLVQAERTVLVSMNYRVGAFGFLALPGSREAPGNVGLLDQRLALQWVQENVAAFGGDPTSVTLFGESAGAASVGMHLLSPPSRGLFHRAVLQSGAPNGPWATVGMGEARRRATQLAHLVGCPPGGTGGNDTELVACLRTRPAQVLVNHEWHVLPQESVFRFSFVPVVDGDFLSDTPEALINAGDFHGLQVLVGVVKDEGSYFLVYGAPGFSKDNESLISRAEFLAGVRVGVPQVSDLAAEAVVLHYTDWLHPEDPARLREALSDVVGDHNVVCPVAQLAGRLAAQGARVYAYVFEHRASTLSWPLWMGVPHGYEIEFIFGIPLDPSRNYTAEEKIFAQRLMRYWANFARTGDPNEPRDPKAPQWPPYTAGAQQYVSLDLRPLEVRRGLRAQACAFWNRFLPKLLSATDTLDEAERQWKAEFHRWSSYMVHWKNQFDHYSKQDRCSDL

`CO[C@@H]1[C@@H](O)[C@H]2c3cc4c(cc3CN3CC=C([C@H]1O)[C@H]23)OCO4` [UNGIMINORINE] showed an IC50 of 86 µM.

Usually IC50 stands for the concentration that gives 50% inhibition.

Source of the values: ChEMBL document CHEMBL1142630, “The application of HPLC with on-line coupled UV/MS-biochemical detection for isolation of an acetylcholinesterase inhibitor from narcissus 'Sir Winston Churchill'” (J Nat Prod, 2000).
